Assay results from patent US8563593B2, “Formulations of (R)-1-(2,2-difluorobenzo[D] [1,3] dioxol-5-yl)-N-(1-(2,3-dihydroxypropyl)-6-fluoro-2-(1-hydroxy-2-methylpropan-2-yl)-1H-indol-5-yl)cyclopropanecarboxamide” (Vertex Pharmaceuticals Incorporated, priority 2010, dated 2013).

Tests used:
ΔF508-CFTR = molecular target: T1, ΔF508-CFTR (Homo sapiens, UniProt P13569, DEL508-508); experiment: Assays for detecting and measuring ΔF508-CFTR correction properties (membrane potential optical assay); assay type: cell-based; conditions: PercentActivity; NIH3T3 mouse fibroblasts stably expressing ΔF508-CFTR
T1 construct: expressed in transfected cells
Description: Assays for Detecting and Measuring ΔF508-CFTR Correction Properties of Compounds
Membrane Potential Optical Methods for Assaying ΔF508-CFTR Modulation Properties of Compounds
The optical membrane potential assay utilized voltage-sensitive FRET sensors described by Gonzalez and Tsien (See Gonzalez, J. E. and R. Y. Tsien (1995) “Voltage sensing by fluorescence resonance energy transfer in single cells” Biophys J 69(4): 1272-80, and Gonzalez, J. E. and R. Y. Tsien (1997) “Improved indicators of cell membrane potential that use fluorescence resonance energy transfer” Chem Biol 4(4): 269-77) in combination with instrumentation for measuring fluorescence changes such as the Voltage/Ion Probe Reader (VIPR) (See, Gonzalez, J. E., K. Oades, et al. (1999) “Cell-based assays and instrumentation for screening ion-channel targets” Drug Discov Today 4(9): 431-439).
These voltage sensitive assays are based on the change in fluorescence resonant energy transfer (FRET) between the membrane-soluble, voltage-sensitive dye, DiSBAC2(3), and a fluorescent phospholipid, CC2-DMPE, which is attached to the outer leaflet of the plasma membrane and acts as a FRET donor. […] The changes in fluorescence emission were monitored using VIPR™ II, which is an integrated liquid handler and fluorescent detector designed to conduct cell-based screens in 96- or 384-well microtiter plates. […]

[1] = Solubility of Compound 1 with and without PEG cosolvent and vitamin E TPGS; assay type: physicochemical
Description: The PEG cosolvent and vitamin E TPGS induced micelle formation increase Compound 1 solubility from 7 micrograms to several milligrams per g of solution.

T1 sequence (P13569 with tags, fused parts or gaps DEL508-508): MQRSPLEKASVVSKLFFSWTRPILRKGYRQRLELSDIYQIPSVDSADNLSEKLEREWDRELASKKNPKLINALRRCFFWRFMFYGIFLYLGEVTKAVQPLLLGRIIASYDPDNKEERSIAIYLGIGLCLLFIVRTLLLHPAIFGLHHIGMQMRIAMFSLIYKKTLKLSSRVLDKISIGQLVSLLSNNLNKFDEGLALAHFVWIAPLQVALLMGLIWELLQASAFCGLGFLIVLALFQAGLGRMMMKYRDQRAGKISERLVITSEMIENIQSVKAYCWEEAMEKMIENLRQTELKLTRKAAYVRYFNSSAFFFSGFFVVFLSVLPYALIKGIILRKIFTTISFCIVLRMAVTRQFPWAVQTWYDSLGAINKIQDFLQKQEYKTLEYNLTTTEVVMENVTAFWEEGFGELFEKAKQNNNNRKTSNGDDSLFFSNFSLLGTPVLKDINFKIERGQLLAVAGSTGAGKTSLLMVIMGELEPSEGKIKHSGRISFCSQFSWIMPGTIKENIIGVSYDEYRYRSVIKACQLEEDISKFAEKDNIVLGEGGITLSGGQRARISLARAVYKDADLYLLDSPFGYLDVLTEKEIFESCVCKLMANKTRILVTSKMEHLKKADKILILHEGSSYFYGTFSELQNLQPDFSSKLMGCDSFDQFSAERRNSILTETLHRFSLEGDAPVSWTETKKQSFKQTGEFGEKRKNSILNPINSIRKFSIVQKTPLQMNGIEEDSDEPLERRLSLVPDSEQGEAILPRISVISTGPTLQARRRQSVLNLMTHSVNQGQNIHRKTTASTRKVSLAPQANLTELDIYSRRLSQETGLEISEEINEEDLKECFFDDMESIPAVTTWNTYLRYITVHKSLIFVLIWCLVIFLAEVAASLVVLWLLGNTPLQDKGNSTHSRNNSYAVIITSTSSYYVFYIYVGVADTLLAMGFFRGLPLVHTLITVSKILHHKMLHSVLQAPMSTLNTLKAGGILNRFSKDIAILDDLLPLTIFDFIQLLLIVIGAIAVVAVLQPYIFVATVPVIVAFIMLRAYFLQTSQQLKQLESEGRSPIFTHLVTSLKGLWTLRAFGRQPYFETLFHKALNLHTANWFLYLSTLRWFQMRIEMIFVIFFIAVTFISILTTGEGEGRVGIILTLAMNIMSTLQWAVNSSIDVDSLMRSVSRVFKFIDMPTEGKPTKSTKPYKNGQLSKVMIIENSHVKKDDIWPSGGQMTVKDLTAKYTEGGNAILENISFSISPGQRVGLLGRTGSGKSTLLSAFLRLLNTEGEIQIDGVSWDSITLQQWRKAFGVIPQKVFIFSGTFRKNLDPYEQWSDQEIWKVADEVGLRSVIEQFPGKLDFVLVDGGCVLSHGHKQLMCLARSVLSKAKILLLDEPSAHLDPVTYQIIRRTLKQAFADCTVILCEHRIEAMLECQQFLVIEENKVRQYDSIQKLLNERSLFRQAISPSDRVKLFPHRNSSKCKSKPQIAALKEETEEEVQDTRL

Compound 1 solubility ([1]; with PEG cosolvent and vitamin E TPGS induced micelle formation): several | Compound 1 solubility ([1]; without PEG cosolvent and vitamin E TPGS): 7 micrograms per g of solution
SMILES: CC(C)(CO)c1cc2cc(NC(=O)C3(c4ccc5c(c4)OC(F)(F)O5)CC3)c(F)cc2n1C[C@@H](O)CO [Compound 1, (R)-1-(2,2-difluorobenzo[d][1,3]dioxol-5-yl)-N-(1-(2,3-dihydroxypropyl)-6-fluoro-2-(1-hydroxy-2-methylpropan-2-yl)-1H-indol-5-yl)cyclopropanecarboxamide]
Binned MaxEfficacy (ΔF508-CFTR): +++ (PercentActivity Bins: + <= 25.0 < ++ <= 100.0 < +++)
